Laboratory results reported in PubChem BioAssay AID248 (DTP/NCI, 2004).
Values joined by “and” are separate entries in the source; they are usually repeats but may differ in a detail not shown here. Identical values can stand only once. Inconclusive results and toxic doses are left out. No stated cut-off is given here; in the data, active means T/C of 150% or more; inactive means T/C below 125%.

System: L1210 leukemia ip in BDF1 mice, survival T/C
Assay: NCI In Vivo Anticancer Drug Screen. Data for tumor model L1210 Leukemia (intraperitoneal) in B6D2F1 (BDF1) mice
Settings: endpoint: mean survival time, higher = longer survival
In short: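 Survival endpoint. Drug-treated group vs vehicle group, expressed as T divided by C. Tumor passaged by transplantation.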

[1] = dose: 100.0 mg/kg/injection, schedule: Q01DX009 (ip), vehicle: Klucel (hydroxypropylcellulose) (HPC)
[2] = dose: 100.0 mg/kg/injection, schedule: Q04DX003 (ip), vehicle: Klucel (hydroxypropylcellulose) (HPC)
[3] = dose: 200.0 mg/kg/injection, schedule: Q01DX009 (ip), vehicle: Klucel (hydroxypropylcellulose) (HPC)
[4] = dose: 200.0 mg/kg/injection, schedule: Q04DX003 (ip), vehicle: Klucel (hydroxypropylcellulose) (HPC)
[5] = dose: 400.0 mg/kg/injection, schedule: Q01DX009 (ip), vehicle: Klucel (hydroxypropylcellulose) (HPC)
[6] = dose: 400.0 mg/kg/injection, schedule: Q04DX003 (ip), vehicle: Klucel (hydroxypropylcellulose) (HPC)
[7] = dose: 50.0 mg/kg/injection, schedule: Q01DX009 (ip), vehicle: saline with Tween-80
[8] = dose: 100.0 mg/kg/injection, schedule: Q01DX009 (ip), vehicle: saline with Tween-80
[9] = dose: 200.0 mg/kg/injection, schedule: Q01DX009 (ip), vehicle: saline with Tween-80
[10] = dose: 25.0 mg/kg/injection, schedule: Q01DX009 (ip), vehicle: saline with Tween-80
[11] = dose: 100.0 mg/kg/injection, schedule: Q04DX003 (ip), vehicle: saline with Tween-80
[12] = dose: 200.0 mg/kg/injection, schedule: Q04DX003 (ip), vehicle: saline with Tween-80
[13] = dose: 400.0 mg/kg/injection, schedule: Q04DX003 (ip), vehicle: saline with Tween-80
[14] = dose: 100.0 mg/kg/injection, schedule: Q01DX001 (ip), vehicle: carboxymethylcellulose (CMC)
[15] = dose: 200.0 mg/kg/injection, schedule: Q01DX001 (ip), vehicle: carboxymethylcellulose (CMC)
[16] = dose: 100.0 mg/kg/injection, schedule: Q01DX001 (ip), vehicle: saline
[17] = dose: 200.0 mg/kg/injection, schedule: Q01DX001 (ip), vehicle: saline
[18] = dose: 50.0 mg/kg/injection, schedule: Q01DX001 (ip), vehicle: saline

Measured: T/C

OC(Cc1ccccc1)(c1ccccc1)c1cccc2ccccc12 (centres undefined)
inactive: [1] 90 % of control | [2] 100 % of control | [3] 95 % of control | [4] 109 % of control | [5] 92 % of control | [6] 97 % of control

Cc1ccc2cccnc2c1N (tested in a mixture with another compound)
inactive: dose: 1.56 mg/kg/injection, schedule: Q01DX009 (ip), vehicle: DMSO 101 % of control | dose: 3.12 mg/kg/injection, schedule: Q01DX009 (ip), vehicle: DMSO 97 % of control | dose: 6.25 mg/kg/injection, schedule: Q01DX009 (ip), vehicle: DMSO 95 % of control and 97 % of control | dose: 12.5 mg/kg/injection, schedule: Q01DX009 (ip), vehicle: DMSO 100 % of control | dose: 25.0 mg/kg/injection, schedule: Q01DX009 (ip), vehicle: DMSO 94 % of control and 88 % of control | dose: 25.0 mg/kg/injection, schedule: Q04DX003 (ip), vehicle: DMSO 107 % of control | dose: 50.0 mg/kg/injection, schedule: Q04DX003 (ip), vehicle: DMSO 86 % of control | dose: 100.0 mg/kg/injection, schedule: Q04DX003 (ip), vehicle: DMSO 98 % of control

O=C(N/N=C/c1ccccc1O)c1ccc(Cl)cc1
inactive: [7] 93 % of control | [8] 93 % of control | [9] 93 % of control

CC(=O)NC(CSCc1c2ccccc2c(C)c2ccccc12)C(=O)O (centres undefined)
inactive: [10] 97 % of control | [7] 101 % of control | [8] 97 % of control and 92 % of control | [11] 94 % of control | [9] 88 % of control | [12] 96 % of control | [13] 96 % of control

COC(C)(C)C(Br)C(=O)OCC(=O)c1ccc(Br)cc1 (centres undefined)
inactive: dose: 50.0 mg/kg/injection, schedule: Q01DX001 (ip), vehicle: carboxymethylcellulose (CMC) 104 % of control | [14] 108 % of control | [15] 102 % of control | dose: 400.0 mg/kg/injection, schedule: Q01DX001 (ip), vehicle: carboxymethylcellulose (CMC) 102 % of control

O=C(O)COc1c(Cl)cc(Cl)c2cccnc12
inactive: [14] 93 % of control | [15] 101 % of control

CSc1ccc(OC(=O)NC2CCCCC2)cc1
inactive: [1] 98 % of control | [2] 98 % of control | [3] 101 % of control | [4] 101 % of control | [5] 116 % of control | [6] 101 % of control

CC(Cl)C(=O)OC(C)(C)Cl (centres undefined)
inactive: dose: 75.0 mg/kg/injection, schedule: Q01DX001 (ip), vehicle: carboxymethylcellulose (CMC) 104 % of control | dose: 150.0 mg/kg/injection, schedule: Q01DX001 (ip), vehicle: carboxymethylcellulose (CMC) 107 % of control

COc1ccc2c(c1)CCC1CC(=O)C=C21 (centres undefined)
inactive: dose: 100.0 mg/kg/injection, schedule: Q01DX009 (ip), vehicle: saline sonified 113 % of control | dose: 200.0 mg/kg/injection, schedule: Q01DX009 (ip), vehicle: saline sonified 103 % of control | dose: 400.0 mg/kg/injection, schedule: Q01DX009 (ip), vehicle: saline sonified 104 % of control

CC1OC(O[C@H]2C[C@@H](O)[C@]3(CO)[C@H]4[C@H](O)C[C@]5(C)[C@@H](C6=CC(=O)OC6)CC[C@]5(O)[C@@H]4CC[C@]3(O)C2)C(O)C(O)C1O (some centres undefined)
inactive: dose: 0.31 mg/kg/injection, schedule: Q01DX009 (ip), vehicle: saline 101 % of control | dose: 0.63 mg/kg/injection, schedule: Q01DX009 (ip), vehicle: saline 101 % of control | dose: 1.25 mg/kg/injection, schedule: Q01DX009 (ip), vehicle: saline 98 % of control | dose: 2.5 mg/kg/injection, schedule: Q01DX009 (ip), vehicle: saline 102 % of control and 108 % of control | dose: 12.5 mg/kg/injection, schedule: Q04DX003 (ip), vehicle: saline 92 % of control | dose: 25.0 mg/kg/injection, schedule: Q04DX003 (ip), vehicle: saline 103 % of control

Cc1cc(-n2c(C)ccc2C)no1
inactive: [11] 100 % of control | [12] 90 % of control | [13] 101 % of control

O=C/C(Br)=C(/Br)C(=O)O
inactive: dose: 6.25 mg/kg/injection, schedule: Q04DX002 (ip), vehicle: saline 100 % of control | dose: 12.5 mg/kg/injection, schedule: Q04DX002 (ip), vehicle: saline 100 % of control | dose: 25.0 mg/kg/injection, schedule: Q04DX002 (ip), vehicle: saline + alcohol 114 % of control | dose: 25.0 mg/kg/injection, schedule: Q04DX002 (ip), vehicle: saline 111 % of control

C=Cc1ccc(O)cc1
inactive: [16] 103 % of control | [17] 106 % of control | dose: 400.0 mg/kg/injection, schedule: Q01DX001 (ip), vehicle: saline 98 % of control

C1=C2CN3CCC45c6ccccc6N6CCC(OC1)C(C2CC34)C65 (centres undefined)
inactive: dose: 1.25 mg/kg/injection, schedule: Q01DX001 (ip), vehicle: other 105 % of control

Nc1nnc2c(n1)[nH]c1ccccc12
inactive: [18] 96 % of control | [16] 100 % of control | [17] 93 % of control

CCC(C)N(C(C)=O)C(C)CC (centres undefined)
inactive: dose: 25.0 mg/kg/injection, schedule: Q01DX001 (ip), vehicle: saline 107 % of control | [18] 97 % of control | [16] 100 % of control

O=[N+]([O-])/C=C/c1ccc(Cl)cc1
inactive: dose: 25.0 mg/kg/injection, schedule: Q01DX009 (ip), vehicle: Klucel (hydroxypropylcellulose) (HPC) 97 % of control | dose: 50.0 mg/kg/injection, schedule: Q01DX009 (ip), vehicle: Klucel (hydroxypropylcellulose) (HPC) 103 % of control

Cc1ccc(NS(=O)(=O)c2ccc(Br)cc2)c(C)c1
inactive: [10] 98 % of control | [7] 96 % of control | [8] 96 % of control | [11] 98 % of control | [9] 98 % of control | [12] 91 % of control | dose: 400.0 mg/kg/injection, schedule: Q01DX009 (ip), vehicle: saline with Tween-80 101 % of control | [13] 93 % of control

Cc1ccc(C)c(NC(=O)NC(C)C)c1
inactive: [1] 94 % of control | [2] 96 % of control | [3] 94 % of control | [4] 91 % of control | [5] 91 % of control | [6] 89 % of control

CCCNS(=O)(=O)c1ccc(C(N)=S)cc1
inactive: dose: 100.0 mg/kg/injection, schedule: Q01DX001 (ip), vehicle: Klucel (hydroxypropylcellulose) (HPC) 103 % of control | dose: 200.0 mg/kg/injection, schedule: Q01DX001 (ip), vehicle: Klucel (hydroxypropylcellulose) (HPC) 108 % of control | dose: 400.0 mg/kg/injection, schedule: Q01DX001 (ip), vehicle: Klucel (hydroxypropylcellulose) (HPC) 98 % of control

Cc1ccc(C)c(NC(=O)NC2CCCCC2)c1
inactive: dose: 100.0 mg/kg/injection, schedule: Q04DX002 (ip), vehicle: saline 101 % of control | dose: 200.0 mg/kg/injection, schedule: Q04DX002 (ip), vehicle: saline 97 % of control | dose: 400.0 mg/kg/injection, schedule: Q04DX002 (ip), vehicle: saline 103 % of control

CN1CSCSC1
inactive: dose: 50.0 mg/kg/injection, schedule: Q01DX009 (ip), vehicle: saline 104 % of control | dose: 100.0 mg/kg/injection, schedule: Q01DX009 (ip), vehicle: saline 98 % of control | [11] 101 % of control | [12] 100 % of control | [13] 97 % of control

Fc1cccc(N2CCOCC2)c1
inactive: [18] 101 % of control | [16] 93 % of control | [17] 101 % of control

CCNC(=S)C(=S)NCC
inactive: dose: 3.0 mg/kg/injection, schedule: Q01DX009 (ip), vehicle: Klucel (hydroxypropylcellulose) (HPC) 92 % of control | dose: 3.12 mg/kg/injection, schedule: Q04DX003 (ip), vehicle: Klucel (hydroxypropylcellulose) (HPC) 100 % of control | dose: 6.0 mg/kg/injection, schedule: Q01DX009 (ip), vehicle: Klucel (hydroxypropylcellulose) (HPC) 97 % of control | dose: 6.25 mg/kg/injection, schedule: Q04DX003 (ip), vehicle: Klucel (hydroxypropylcellulose) (HPC) 104 % of control | dose: 12.5 mg/kg/injection, schedule: Q04DX003 (ip), vehicle: Klucel (hydroxypropylcellulose) (HPC) 98 % of control and 106 % of control
